{"source": "BindingDB's records for doi:10.1124/jpet.301.2.661", "about": "(University of Arkansas, 2002)", "target": "Delta-type opioid receptor (Homo sapiens, UniProt P41143)", "sequence (P41143 whole entry)": "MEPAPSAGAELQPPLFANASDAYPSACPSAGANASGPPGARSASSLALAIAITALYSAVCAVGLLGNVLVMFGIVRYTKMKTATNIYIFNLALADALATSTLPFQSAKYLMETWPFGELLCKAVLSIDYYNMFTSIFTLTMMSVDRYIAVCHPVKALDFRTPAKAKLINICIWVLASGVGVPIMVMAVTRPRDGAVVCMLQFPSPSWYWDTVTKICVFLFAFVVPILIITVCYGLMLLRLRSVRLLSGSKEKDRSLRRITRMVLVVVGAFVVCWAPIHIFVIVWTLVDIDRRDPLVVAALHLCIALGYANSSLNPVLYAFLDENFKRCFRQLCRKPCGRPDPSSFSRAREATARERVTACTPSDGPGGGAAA", "note": "Where “and” joins values, the source holds several entries; their conditions need not be identical. Equal values may be shown once. Square brackets hold non-standard residues; d marks the D form. Peptide text beside a SMILES is read from it. * marks the point of attachment. Tyr(Nα,Nα-allyl2) = C=CCN(CC=C)[C@@H](Cc1ccc(O)cc1)C(=O)*; Tic = O=C(O)[C@@H]1Cc2ccccc2CN1; Aib = CC(C)(N)C(=O)O"}
{"smiles": "C=CCN(CC=C)[C@@H](Cc1ccc(O)cc1)C(=O)NC(C)(C)C(=O)NC(C)(C)C(=O)N[C@@H](Cc1ccccc1)C(=O)N[C@@H](CC(C)C)C(=O)O", "note": "[NSC_107691] ({Tyr(Nα,Nα-allyl2)}-[Aib][Aib]FL-OH)", "values": [{"measurement": "Ki", "result": 304, "unit": "nM"}]}
{"smiles": "N[C@@H](Cc1ccc(O)cc1)C(=O)N1Cc2ccccc2C[C@H]1C(=O)N[C@@H](Cc1ccccc1)C(=O)N[C@@H](Cc1ccccc1)C(=O)O", "note": "[TIPP] (H-Y[Tic]FF-OH)", "values": [{"measurement": "Ki", "result": "5.8 nM and 3.02 nM"}]}
